Measurements from EP0773292A1, “Immortalised embryonic hippocampal cells and their use” (BAYER AG, priority 1995, dated 1997).
Read-outs that look alike come from different tables or passages of the source.

Legend:
Assay type in all cases: cell-based, murine
[1] = tested on: HC e/n XVB cells; assay: Electrophysiology: whole-cell patch-clamp, ligand-activated currents; details: for ligand-activated currents: membrane potential clamped to -70mV; for ligand induced inward currents: differentiated HC e/n XVB cells, AMPA 100µM, NMDA, kainate, glutamate 1mM
Method: (§1) Electrophysiological setup: Membrane currents were measured with the patch-clamp technique in the whole-cell recording configuration (Hamill et al. 1981, Pfluegers Arch. 391:85-100). Current signals were amplified with conventional electronics (EPC-9 amplifier, HEKA Elektronik GmbH, Lambrecht, Germany), filtered at 10kHz, and sampled at 5 kHz by an interface connected to an IBM AT-compatible computer system, which also served as a stimulus generator.
(§2) Solutions and electrodes: The standard bathing solution contained (in mM): Nacl 150, KCL 5, MgCl2 1.8, HEPES 5, and glucose 10. In some experiments an equimolar amount of NaCl was replaced by 5mM BaCl2. Recording pipettes had resistances about 5MΩ (Hilgenberg, Malsfeld, Germany). The pipettes contained (in mM): KCL 140, CaCl2 0.5, EGTA 5, MgCl2 2, and HEPES 10. The pH was adjusted to 7.4. In some experiments the pipette solution was designed to minimize the contribution of voltage-activated currents. In this case, investigating the ligand-activated currents, the pipette solution contained (in mM): CsCl 140, EGTA 10, and HEPES 10.
(§3) Ligands were dissolved in the extracellular saline solution and applied via an U-tube application system. To record ligand-induced currents, the membrane potential was clamped to -70mV. For measurements of voltage-activated currents, cells were held at -70mV and every second the membrane was stepped through a 50 msec. de- or hyperpolarising test pulse to a potential between -170 and +20 mV.

[2] = tested on: HNMMCV14.1.A; assay: as above; details: 14.1.A; membrane potential clamped to -70mV
Method: as §1, §2, §3

[3] = tested on: metabotropic glutamate receptor(s) (mGluR) expressed by HNMMCV14.1A cells; assay: Second messenger: phosphoinositide hydrolysis, accumulation of 3H-inositol phosphates
Method: Phosphoinositide hydrolysis was determined by measuring the accumulation of ^3H-inositol phosphates. The cells were plated in 48-well plates (Costar) at a density of 10000 cells per well and incubated for 4-5 days at 37°C, 7% CO2. Then the cells were labeled by incubation with 4 µCi of myo-2-^3H-inositol per ml medium (specific activity: […]: Amersham). After 24 h LiCl (10 mM final concentration) was added to the cells for 1 h. Agonists were then added at the concentrations indicated. The incubation was stopped after 1 h by replacing the medium with 200 µl ice-cold methanol. 400 µl of destilled water was added and the sample was directly applied to AG-1X8 ion exchange columns (AG-1X8 resin: BioRad). Free inositol and glycerophosphoryl-inositol were washed away with 16 ml destilled water followed by 10 ml 5 mM disodium-tetraborate, 60 mM sodium formate. Total ^3H-inositol phosphates (IP1, IP2, IP3) were eluted with 7 ml of 100 mM formic acid, 1 M ammonium formate. Radioactivity of the eluted ^3H-inositol phosphates was determined by liquid scintillation counting after addition of 13 ml liquid scintillation cocktail (Ultima Gold: Canberra Packard). Measurements were performed in triplicates for each experimental point. Untreated controls were set as 100% and the other values calculated in relation to this.
The columns were prepared as follows: 1 ml pipet tips were filled with one glass bead (Roth) per tip before adding 500 µl AG-1X8 resin. The resin was compressed with air and 270 µl seasand was applied. Until use they were stored at 4°C.

[4] = tested on: HC e/n XV.B cells; assay: Ca2+-imaging (Fura-2), rise in intracellular calcium
Method: (§4) Fluorescent Probe: Dynamic changes of intracellular calcium concentration were measured using the Fura-2 fluorescent probe (Roe et al. 1990, Cell Calcium 11:63-73). This fluorescent dye was chosen because of its selectivity, high quantum yield and extinction co-efficient. Fura-2 permeates the living cell as a acetoxymethylester and becomes trapped within the cell after hydrolysis by intracellular esterases. The calcium-sensitive free acid of Fura-2 is able to bind to calcium ions inside the cell. Fura-2 has an excitation maximum at 380 nm and the Fura2/calcium complex peaks at 340 nm. A change in intracellular calcium concentration was calculated by recording fluorescent video images at wavelengths of 340nm and 380nm excitation and 510nm emission and by dividing the grey values of the digitized video images of 380nm from 340nm.
(§5) Loading cells with Fura-2: A stock solution with 2mM Fura-2-acetoxymethylester in dimethylsulfoxide (DMSO) was diluted to 5-10 µM with serum free Minimal Essential Medium (MEM, Gibco) containing 1.5% bovine serum albumin and 5 mM calcium chloride. The cells were incubated in a Falcon 96 well plate for 45-60 minutes at 37°C. Subsequently the cells were washed twice in N-(2-Hydroxyethyl)piperazine-N'-(2-ethanesulfonic acid) (HEPES, 5mM) buffered Tyrode solution (HEPES buffered salt solution containing 130 mM NaCl, 5 mM KCl, 2 mM CaCl2, 1 mM MgCl2, 5mM NaHCO3, 11 mM Glucose).
(§6) Imaging procedure: 100 µl of Tyrode buffer was added to the plate wells and the cells were sequencially exposed to light at 340 nm and 380 nm under a fluorescent microscope (Nikon Diaphot). The exposition time was 100 ms. A series of video images at 3 second intervals was acquired and stored as digitised pictures in the image boards of an image analysis computer (Leica, Quantimet 570). After the acquisition of 8 images the test substances were applied. The grey levels of the cells, which correspond to the fluorescence intensity, were measured in the recorded video images. The ratio was determined by dividing the measured grey levels of the "380 nm images" by the grey levels of the "340 nm images" either from averaged images or from individual cells. For averaged results, the grey levels were measured over the whole images.
(§7) The cells were loaded with Fura 2/AM between day 3 and 7 in culture. A number of agonists were tested for their ability to activate specific receptors on the cell surface which leads to a rise in intracellular calcium. The rise in calcium concentration in the cytoplasm can occur after activation of specific calcium channels in the cell membrane, after activation of neurotransmitter receptors directly coupled to ion channels that are permeable to calcium ions (i.e. NMDA or AMPA type glutamate receptors), or by activation of receptors, which propagate the signal through the activation of specific G-proteins, which regulate the activity of different enzymes in the interior of the cell (Connor, Cell Calcium 14 (1993), 185-200; Crouch and Hendry, Medical Res. Rev. 13 (1993), 105-123). The activation of phospholipase C generates the second messengers diacylglycerol and inositoltriphosphate from phospholipids in the cell membrane. The binding of inositoltriphosphate to receptors localised on internal vesicles which store calcium ions leads to a transient rise in the concentration of calcium ions in the cytoplasm (Berridge, M.J. 1993, Nature 361: 315-325).

[5] = tested on: HNMMCV11.2.0; assay: as above; details: HNMMCV11.2.0; glutamate 10µM to 10 mM, AMPA, kainic acid, serotonine, dopamine, carbachol up to 1mM, NMDA up to 500µM
Method: as §4, §5, §6, §7

[6] = tested on: HNMMCV13.1.E; assay: as above; details: HNMMCV13.1.E; glutamate 10µM to 10 mM, AMPA, kainic acid, serotonine, dopamine, carbachol up to 1mM, NMDA up to 500µM
Method: as §4, §5, §6, §7

[7] = tested on: HNMMCV13.1.F; assay: as above; details: for transient rise in intracellular calcium concentration: HNMMCV13.1.F, glutamate 10µM to 10 mM, AMPA, kainic acid, serotonine, dopamine, carbachol up to 1mM, NMDA up to 500µM
Method: as §4, §5, §6, §7

[8] = tested on: HNMMCV14.1.A; assay: as above; details: HNMMCV14.1.A; glutamate 10µM to 10 mM, AMPA, kainic acid, serotonine, dopamine, carbachol up to 1mM, NMDA up to 500µM
Method: as §4, §5, §6, §7

[9] = HNMMCV14.1A cells, result in words
[10] = differentiated HC e/n XV.B cells
[11] = HC e/n XV.B cells, state of differentiation not given, up to 1mM

SMILES | ligand-activated currents ([1]; XV. B/ - EGF (differentiated)) | transient rise in intracellular calcium concentration [5] | transient rise in intracellular calcium concentration [6] | transient rise in intracellular calcium concentration [7] | transient rise in intracellular calcium concentration [8] | also measured
NCCCC(=O)O [GABA] | +++ (+++: 70-100% positive cells) |  |  |  |  | reversal potential of the ligand-activated current ([1]; HC e/n XVB cells, membrane stepped from -100 to +40): ~+10 mV; ligand-activated currents ([1]; XV. B (with EGF, undifferentiated)): + (+: 10-30% positive cells); ligand induced inward currents [1]: prominent resonses; ligand-activated currents [2]: ++ (++: 30-70% positive cells)
N[C@@H](Cn1oc(=O)[nH]c1=O)C(=O)O [Quisqualate, quisqualate] |  |  |  |  |  | maximum responses (inositolphosphate accumulation) compared with glutamate ([3]; HNMMCV14.1A cells): slightly weaker; effect on inositolphosphate accumulation [3, 9]: concentration dependent increase
NC(C(=O)O)c1cc(O)no1 (stereo not shown) [ibotenate] |  |  |  |  |  | effect on inositolphosphate accumulation [3]: concentration dependent increase; maximum responses (inositolphosphate accumulation) compared with glutamate [3]: slightly weaker
N[C@H](C(=O)O)[C@H]1C[C@@H]1C(=O)O [L-CCG 1, L-carboxycyclopropylglycin] |  | strong | strong | strong | strong | transient rise in intracellular calcium concentration [4, 10]: weak signals
N#Cc1cc2[nH]c(=O)c(=O)[nH]c2cc1[N+](=O)[O-] [CNQX, 6-nitro-7-cyanochinoxalin-2,3-dione] |  |  |  |  |  | antagonism of the calcium signals recorded after application of glutamate ([7]; glutamate 100µM, CNQX 100µM, cell clone taken from Table 5 (13.1.F)): not antagonised
CN[C@H](CC(=O)O)C(=O)O [NMDA, N-methyl-D-aspartate] | ++ (++: 30-70% positive cells) |  |  |  |  | 
NCCc1ccc(O)c(O)c1 [Dopamine, dopamine] |  | did not lead to a specific signal | did not lead to a specific signal | did not lead to a specific signal | did not lead to a specific signal | transient rise in intracellular calcium concentration [4, 11]: did not lead to a specific signal
NCCc1c[nH]c2ccc(O)cc12 [Serotonine] |  | did not lead to a specific signal | did not lead to a specific signal | did not lead to a specific signal | did not lead to a specific signal | transient rise in intracellular calcium concentration [4, 11]: did not lead to a specific signal
CC(=O)OCC[N+](C)(C)C [Acetylcholine, acetylcholine] | - |  |  |  |  | ligand-activated currents [2]: + (+: 10-30% positive cells)
Cc1onc(O)c1CC(N)C(=O)O (stereo not shown) [AMPA, ∝-amino-3-hydroxy-5-methyl-4-isoxazol-propionic acid] | + (+: 10-30% positive cells) | did not result in a transient rise in intracellular calcium concentrations | did not result in a transient rise in intracellular calcium concentrations | did not result in a transient rise in intracellular calcium concentrations | did not result in a transient rise in intracellular calcium concentrations | transient rise in intracellular calcium concentration ([4]; undifferentiated HC e/n XV.B cells, AMPA, kainate up to 1mM, NMDA up to 500µM): did not result in a transient rise in intracellular calcium concentrations; ligand induced inward currents [1]: evoked responses with different peak amplitudes
C[N+](C)(C)CCOC(N)=O [Carbachol] |  | not in any other cell line tested | not in any other cell line tested | not in any other cell line tested |  | transient rise in intracellular calcium concentration [4, 11]: reproducible signal
N[C@@]1(C(=O)O)CC[C@@H](C(=O)O)C1 [t-ACPD, 1S3R-aminocyclopentane-1,3-dicarboxylate] |  | strong | strong | strong | strong | transient rise in intracellular calcium concentration [4, 10]: weak signals; maximum responses (inositolphosphate accumulation) compared with glutamate ([3]; HNMMCV14.1A cells): slightly weaker; effect on inositolphosphate accumulation [3, 9]: concentration dependent increase
